IC50 data for ten compounds are collected here from BindingDB's records for doi:10.1021/jm00055a008 (Tufts University, 1993).

Each structure is given as a SMILES string.

In this experiment the target is Tetracycline efflux protein TetA(B) (Escherichia coli). The experiment is described as follows: Inhibition of [3H]tetracycline uptake into everted membrane vesicles, prepared from tetracycline resistant Escherichia coli D1-209.
Regarding `CN(C)[C@@H]1C(=O)C(C(N)=O)C(=O)[C@@]2(O)C(=O)C3C(=O)c4c(O)cccc4[C@H](CSC(C)(C)C)C3[C@H](O)C12` (stereo not given in full) [6-tert-Butylsulfanylmethyl-4-dimethylamino-3,5,10,12,12a-pentahydroxy-1,11-dioxo-1,4,4a,5,5a,6,11,12a-octahydro-naphthacene-2-carboxylic acid amide], half-maximal inhibition (IC50) was put at 500 nM.

On to `CN(C)[C@@H]1C(=O)C(C(N)=O)C(=O)[C@@]2(O)C(=O)C3C(=O)c4c(O)cccc4[C@H](CSCCC(=O)O)C3[C@H](O)C12` (stereo not given in full) [3-(9-Carbamoyl-7-dimethylamino-1,6,8,10a,11-pentahydroxy-10,12-dioxo-5,5a,6,6a,7,10,10a,12-octahydro-naphthacen-5-ylmethylsulfanyl)-propionic acid], for which the IC50 – broadly, the concentration that gives 50% inhibition – amounted to 43200 nM.

As to `CSC[C@H]1c2cccc(O)c2C(=O)C2C(=O)[C@]3(O)C(=O)C(C(N)=O)C(=O)[C@@H](N(C)C)C3[C@@H](O)C21` (stereo not given in full) [4-Dimethylamino-3,5,10,12,12a-pentahydroxy-6-methylsulfanylmethyl-1,11-dioxo-1,4,4a,5,5a,6,11,12a-octahydro-naphthacene-2-carboxylic acid amide], the IC50 was 7900 nM.

`CN(C)[C@@H]1C(=O)C(C(N)=O)C(=O)[C@@]2(O)C(=O)C3C(=O)c4c(O)cccc4[C@H](CS(=O)(=O)Cc4ccccc4)C3[C@H](O)C12` (stereo not given in full) [4-Dimethylamino-3,5,10,12,12a-pentahydroxy-1,11-dioxo-6-phenylmethanesulfonylmethyl-1,4,4a,5,5a,6,11,12a-octahydro-naphthacene-2-carboxylic acid amide] displayed an IC50 of 1500 nM.

Compound `CN(C)[C@@H]1C(=O)C(C(N)=O)C(=O)[C@@]2(O)C(=O)C3C(=O)c4c(O)cccc4[C@H](CSCc4ccc(Cl)cc4)C3[C@H](O)C12` (stereo not given in full) [6-(4-Chloro-benzylsulfanylmethyl)-4-dimethylamino-3,5,10,12,12a-pentahydroxy-1,11-dioxo-1,4,4a,5,5a,6,11,12a-octahydro-naphthacene-2-carboxylic acid amide] came in with an IC50 of 2100 nM.

In the case of `CCCCSC[C@H]1c2cccc(O)c2C(=O)C2C(=O)[C@]3(O)C(=O)C(C(N)=O)C(=O)[C@@H](N(C)C)C3[C@@H](O)C21` (stereo not given in full) [6-Butylsulfanylmethyl-4-dimethylamino-3,5,10,12,12a-pentahydroxy-1,11-dioxo-1,4,4a,5,5a,6,11,12a-octahydro-naphthacene-2-carboxylic acid amide], 800 nM corresponded to half-maximal inhibition (IC50).

In the case of `COc1ccc(SC[C@H]2c3cccc(O)c3C(=O)C3C(=O)[C@]4(O)C(=O)C(C(N)=O)C(=O)[C@@H](N(C)C)C4[C@@H](O)C32)cc1` (stereo not given in full) [4-Dimethylamino-3,5,10,12,12a-pentahydroxy-6-(4-methoxy-phenylsulfanylmethyl)-1,11-dioxo-1,4,4a,5,5a,6,11,12a-octahydro-naphthacene-2-carboxylic acid amide], the IC50 was 1200 nM.

For the compound `CN(C)[C@@H]1C(=O)C(C(N)=O)C(=O)[C@@]2(O)C(=O)C3C(=O)c4c(O)cccc4[C@H](CSc4ccc(Cl)cc4)C3[C@H](O)C12` (stereo not given in full) [6-(4-Chloro-phenylsulfanylmethyl)-4-dimethylamino-3,5,10,12,12a-pentahydroxy-1,11-dioxo-1,4,4a,5,5a,6,11,12a-octahydro-naphthacene-2-carboxylic acid amide], the IC50 was determined as 1600 nM.

In turn, `CN(C)[C@@H]1C(=O)C(C(N)=O)C(=O)[C@@]2(O)C(=O)C3C(=O)c4c(O)cccc4[C@H](CSc4ccccc4)C3[C@H](O)C12` (stereo not given in full) [4-Dimethylamino-3,5,10,12,12a-pentahydroxy-1,11-dioxo-6-phenylsulfanylmethyl-1,4,4a,5,5a,6,11,12a-octahydro-naphthacene-2-carboxylic acid amide] showed an IC50 of 6900 nM.

For `CN(C)[C@@H]1C(=O)C(C(=O)NCN2CCOCC2)C(=O)[C@@]2(O)C(=O)C3C(=O)c4c(O)cccc4[C@H](CSC4CCCC4)C3[C@H](O)C12` (stereo not given in full) [6-Cyclopentylsulfanylmethyl-4-dimethylamino-3,5,10,12,12a-pentahydroxy-1,11-dioxo-1,4,4a,5,5a,6,11,12a-octahydro-naphthacene-2-carboxylic acid (morpholin-4-ylmethyl)-amide], the IC50 was 1000 nM.
